pIC50: −log10 of the molar value.
Columns and labels:
human PDHK2 (hPDHK2) = target: T1, human PDHK2 (hPDHK2) (Homo sapiens, UniProt Q15119); test: Inhibitory action of PDHK2 activity in vitro (residual PDH activity after kinase reaction); format: biochemical
T1 construct: made in house; host or cells: Escherichia coli BL21(DE3), pET17b
Experimental: The inhibitory action of PDHK activity was assessed indirectly by measuring the residual PDH activity after kinase reaction in the presence of a test compound.
In the case of human PDHK2 (hPDHK2, Genbank Accession No. BC040478.1), modified hPDHK2 cDNA wherein FLAG-Tag sequence was added to the N terminus of hPDHK2 cDNA clone (pReceiver-M01/PDK2-GeneCopoeia) was prepared by PCR and cloned into a vector (pET17b-Novagen). The recombinant construct was transformed into Escherichia coli (DH5α-TOYOBO). The recombinant clones were identified, and plasmid DNA was isolated and subjected to the DNA sequence analysis. One clone which had the expected nucleic acid sequence was selected for expression work.
For expression of hPDHK2 activity, Escherichia coli strain BL21(DE3) cells (Novagen) were transformed with the pET17b vector containing modified hPDHK2 cDNA. The Escherichia coli were grown to an optical density 0.6 ([…]) at 30° C. Protein expression was induced by the addition of 500 μmol/L isopropyl-β-thiogalactopyranoside. The Escherichia coli were cultured at 30° C. for 5 hr and harvested by centrifugation. Resuspension of the Escherichia coli paste was disrupted by a microfluidizer. FLAG-Tagged protein was purified using FLAG affinity gel. The gel was washed with 20 mmol/L HEPES-NaOH, 500 mmol/L sodium chloride, 1% ethylene glycol, and 0.1% Pluronic F-68 (pH 8.0), and the binding protein was eluted with 20 mmol/L HEPES-NaOH, 100 μg/mL FLAG peptide, 500 mmol/L sodium chloride, 1% ethylene glycol, and 0.1% Pluronic F-68 (pH 8.0). The eluted fractions containing FLAG-Tagged protein were pooled, dialyzed against 20 mmol/L HEPES-NaOH, 150 mmol/L sodium chloride, 0.5 mmol/L EDTA, 1% ethylene glycol, and 0.1% Pluronic F-68 (pH 8.0), and preserved at −80° C.
0.05 U/mL PDH and 0.8 μg/mL hPDHK2 were mixed in a buffer (50 mmol/L 3-morpholinopropanesulfonic acid (pH 7.0), 20 mmol/L dipotassium hydrogen phosphate, 60 mmol/L potassium chloride, 2 mmol/L magnesium chloride, 0.4 mmol/L EDTA, and 0.2% Pluronic F-68, 2 mmol/L dithiothreitol), and the mixture was incubated at 4° C. overnight to obtain a PDH/hPDHK2 complex. The test compounds were diluted with DMSO. […] DMSO (1.5 μL) was added to control wells instead of the test compound. […] The mixture was incubated at room temperature for 90 min, and the residual PDH activity was measured. The absorbance at 340 nm before and after PDH reaction was measured using a microplate reader to detect NADH produced by the PDH reaction. The hPDHK2 inhibition rate (%) of the test compound was calculated from the formula [{(PDH activity of test compound−PDH activity of control)/PDH activity of blank−PDH activity of control)}×100].

[1] = Metabolic stability test in liver microsome (human); format: in vitro ADME; conditions: 5 μM test compound
Experimental: Human liver microsome (manufactured by Xenotech, H0620, final concentration (after dilution), 0.2 mg protein/mL) was suspended in 100 mM potassium phosphate buffer (pH 7.4, containing β-nicotinamide adenine dinucleotide phosphate: 1.3 mM, D-glucose-6-phosphate: 3.3 mM, magnesium chloride: 3.3 mM, glucose-6-phosphate dehydrogenase: 0.45 U/mL), and further mixed with a test compound dissolved in MeCN/DMSO (95/5) (final concentration 5 μM). The mixture was incubated at 37° C. for 10 min and 60 min, acetonitrile containing formic acid (final concentration 0.1%) was added, and the mixture was centrifuged. The test compound (unmodified) in the supernatant was measured by high performance liquid chromatography/mass spectrometry (LC/MS) (manufactured by Waters, LC: Acquity UPLC, MS:SQ Detector or TQ Detector). The residual ratio (%) was calculated from the obtained measurement value.

| pIC50 (human PDHK2 (hPDHK2)) | stability in liver microsome (residual ratio %) ([1]; 10 min) [%] | stability in liver microsome (residual ratio %) ([1]; 60 min) [%] | SMILES |
| --- | --- | --- | --- |
| 8.04 | 102.1 | 87.8 | C[C@H](O)COc1cc(-c2cnn(CC(C)(C)O)c2)c2c(c1)[C@@](O)(C(F)(F)F)c1ccccc1-2 [compound (1), (9R)-4-[1-(2-hydroxy-2-methylpropyl)-1H-pyrazol-4-yl]-2-((2S)-2-hydroxypropoxy)-9-(trifluoromethyl)-9H-fluoren-9-ol] |
| 8.01 | 94.9 | 87.9 | CC(C)(O)COc1cc(-c2cnn(CC(C)(C)O)c2)c2c(c1)[C@@](O)(C(F)(F)F)c1ccccc1-2 [compound (2), (9R)-2-(2-hydroxy-2-methylpropoxy)-4-[1-(2-hydroxy-2-methylpropyl)-1H-pyrazol-4-yl]-9-(trifluoromethyl)-9H-fluoren-9-ol] |
| 8.18 | 98.8 | 78.9 | CC(C)(O)CCCOc1cc(-c2cnn(CC(C)(C)O)c2)c2c(c1)[C@@](O)(C(F)(F)F)c1ccccc1-2 [compound (4), (9R)-2-(4-hydroxy-4-methylpentyloxy)-4-[1-(2-hydroxy-2-methylpropyl)-1H-pyrazol-4-yl]-9-(trifluoromethyl)-9H-fluoren-9-ol] |
|  | 34.8 | 0.0 | NC(=O)Cn1cc(-c2cc(OCCC34CC5CC(CC(O)(C5)C3)C4)cc3c2-c2ccccc2[C@]3(O)C(F)(F)F)cn1 [compound (A), 2-(4-{(9R)-9-Hydroxy-2-[2-(3-hydroxyadamantan-1-yl)ethoxy]-9-(trifluoromethyl)-9H-fluoren-4-yl}-1H-pyrazol-1-yl)acetamide, reference compound] |
|  | 98.0 | 88.2 | Cn1cc(-c2cc(OCC(C)(C)O)cc3c2-c2ccccc2[C@]3(O)C(F)(F)F)cn1 [compound (B), (9R)-2-(2-Hydroxy-2-methylpropoxy)-4-(1-methyl-1H-pyrazol-4-yl)-9-(trifluoromethyl)-9H-fluoren-9-ol, reference compound] |

— patent US20150025120A1, “PYRAZOLE-ALCOHOL COMPOUNDS AND PHARMACEUTICAL USE THEREOF” (JAPAN TOBACCO INC., priority 2013, published 2015)
